Our source for the Kd and IC50 values is patent US7166726B2, “Aryl substituted 3,4-dihydroanthracene derivatives having retinoid antagonist or retinoid inverse agonist type biological activity” (Allergan, Inc., priority 1996, dated 2007).

The target of assay [1] is T1, RARα (Homo sapiens, UniProt P10276).
T1 sequence (P10276 1-462): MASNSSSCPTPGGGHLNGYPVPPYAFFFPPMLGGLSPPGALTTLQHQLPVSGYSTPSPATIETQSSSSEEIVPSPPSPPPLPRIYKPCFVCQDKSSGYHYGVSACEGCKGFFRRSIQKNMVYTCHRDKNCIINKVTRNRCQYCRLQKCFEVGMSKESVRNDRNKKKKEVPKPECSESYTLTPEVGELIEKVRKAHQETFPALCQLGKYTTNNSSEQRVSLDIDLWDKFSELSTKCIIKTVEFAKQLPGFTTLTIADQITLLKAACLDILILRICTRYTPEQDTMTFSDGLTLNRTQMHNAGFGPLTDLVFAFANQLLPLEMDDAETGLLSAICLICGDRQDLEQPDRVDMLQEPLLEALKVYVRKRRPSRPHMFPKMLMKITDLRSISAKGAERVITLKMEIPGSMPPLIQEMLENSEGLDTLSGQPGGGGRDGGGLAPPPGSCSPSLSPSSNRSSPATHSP
Nature of the assay: Ligand binding assay, RARα. The text has this: (§1) A holoreceptor transactivation assay and a ligand binding assay which measure the antagonist/agonist like activity of the compounds of the invention, or their ability to bind to the several retinoid receptor subtypes, respectively, are described in published PCT Application No. WO WO93/11755 (particularly on pages 30–33 and 37–41) published on Jun. 24, 1993, the specification of which is also incorporated herein by reference. A description of the holoreceptor transactivation assay is also provided below.
(§2) CV1 cells (5,000 cells/well) were transfected with an RAR reporter plasmid MTV-TREp-LUC (50 ng) along with one of the RAR expression vectors (10 ng) in an automated 96-well format by the calcium phosphate procedure of Heyman et al. Cell 68, 397–406, (1992). For RXRα and RXRγ transactivation assays, an RXR-responsive reporter plasmid CRBPII-tk-LUC (50 ng) along with the appropriate RXR expression vectors (10 ng) was used substantially as described by Heyman et al. above, and Allegretto et al. J. Biol. Chem. 268, 26625–26633. For RXRβ transactivation assays, an RXR-responsive reporter plasmid CPRE-tk-LUC ([…]) along with RXRβ expression vector ([…]) was used as described in above. These reporters contain DRI elements from human CRBPII and certain DRI elements from promoter, respectively. […]

The subject of assay [2] is RARγ-VP-16 chimeric receptor. Nature of the assay: Retinoid inverse agonist assay: repression of basal luciferase activity of RARγ-VP-16 chimeric receptor in CV-1 cells. The format is cell-based. The conditions noted are these: CV-1 cells cotransfected with RARγ-VP-16, ER-RXRα chimeric receptor and ERE-tk-Luc reporter; read-out: IC50, inhibition of basal luciferase activity. The text has this:
The activity of retinoid inverse agonists can be tested by the procedure of Klein et al. J. Biol. Chem. 271, 22692–22696 (1996) which is expressly incorporated herein by reference.
In this assay, retinoid inverse agonists are able to repress the basal activity of a RARγ-VP-16 chimeric receptor where the constituitively active domain of the herpes simplex virus (HSV) VP-16 is fused to the N-terminus of RARγ. CV-1 cells are cotransfected with RARγ-VP-16, an ER-RXRα chimeric receptor and an ERE-tk-Luc chimeric reporter gene to produce a basal level of luciferase activity, as shown by Nagpal et al. EMBO J. 12, 2349–2360 (1933) expressly incorporated herein by reference. Retinoid inverse agonists are able to inhibit the basal luciferase activity in these cells in a dose dependent manner and IC50s measured.

The target in assay [3] is T2, RARγ (Homo sapiens, UniProt P13631).
T2 sequence (P13631 1-454): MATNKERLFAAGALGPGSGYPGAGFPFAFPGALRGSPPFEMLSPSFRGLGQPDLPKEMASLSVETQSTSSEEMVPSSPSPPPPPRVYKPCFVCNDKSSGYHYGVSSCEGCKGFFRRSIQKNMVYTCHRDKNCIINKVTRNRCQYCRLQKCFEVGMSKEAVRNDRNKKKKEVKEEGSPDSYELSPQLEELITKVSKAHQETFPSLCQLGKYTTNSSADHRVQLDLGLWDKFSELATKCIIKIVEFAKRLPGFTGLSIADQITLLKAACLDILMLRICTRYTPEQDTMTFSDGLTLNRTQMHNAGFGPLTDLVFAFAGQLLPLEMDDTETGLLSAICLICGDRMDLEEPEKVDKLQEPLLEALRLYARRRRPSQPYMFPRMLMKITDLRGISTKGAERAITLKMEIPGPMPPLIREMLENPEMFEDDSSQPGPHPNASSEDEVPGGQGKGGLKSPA
Nature of the assay: Ligand binding assay, RARγ. The conditions noted are these: read-out: Kd TATγ.
From the text: as §1, §2

For assay [4], the target named is T3, RARβ (Homo sapiens, UniProt P10826).
T3 sequence (P10826 1-455): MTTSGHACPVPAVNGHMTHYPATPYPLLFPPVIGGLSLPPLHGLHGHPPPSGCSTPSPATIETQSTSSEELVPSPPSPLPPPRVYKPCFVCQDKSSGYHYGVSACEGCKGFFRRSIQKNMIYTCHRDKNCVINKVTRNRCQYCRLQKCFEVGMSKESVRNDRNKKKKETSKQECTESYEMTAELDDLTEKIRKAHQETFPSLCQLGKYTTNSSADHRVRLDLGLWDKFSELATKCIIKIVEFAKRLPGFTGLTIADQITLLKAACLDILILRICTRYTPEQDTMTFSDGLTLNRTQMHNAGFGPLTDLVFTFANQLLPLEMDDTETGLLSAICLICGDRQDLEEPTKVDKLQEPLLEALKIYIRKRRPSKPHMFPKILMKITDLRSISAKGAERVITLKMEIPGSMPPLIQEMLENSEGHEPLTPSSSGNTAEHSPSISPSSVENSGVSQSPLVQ
In words: Ligand binding assay, RARβ.
From the text: as §1, §2

The structures appear in SMILES notation.

On to `Cc1ccc(C2=CCC(C)(C)c3cc4cccc(-c5ccc(C(=O)O)cc5)c4cc32)cc1` [Compound 2, 4-[1(Tol-4-yl)-3,4-dihydro-4,4-dimethyl-anthracen-8-yl]-benzoic acid], for which the Kd (as a rule, the concentration at which binding is half-saturated) in assay [1] is 13 nM; in assay [3] it was 7 nM; in assay [4], 4 nM. The IC50 (in general, the concentration that gives 50% inhibition) in assay [2] stood at 1 nM.

In the case of `Cc1ccc(C2=CC(C)(C)Oc3cc4ccc(-c5ccc(C(=O)O)cc5)cc4cc32)s1` [Compound 12, 4-[2,2-Dimethyl-4-(5-methyl-thien-2-yl)-benzo[1,2-g]-chrom-3-en-7-yl]benzoic acid], the Kd in assay [1] amounted to 17 nM; in assay [3] it was 33 nM; in assay [4], 12 nM.
